Reference: US8512726B1, “Molecular gel-based control release devices for pheromones” (The United States of America, as represented by the …, priority 2010, dated 2013)

Experiments:
[1] = at 20 C; cited from earlier work
[2] = system: varroa (Varroa destructor); conditions: at elevated levels, honey bee colonies; cited from earlier work
[3] = Biodegradation: mineralization in compost, respirometer; conditions: room temperature (22° C.), compared to starch control
Description: The relative degradation rate of samples was determined using a respirometer (Micro-Oxymax System, Columbus Instruments, Columbus, Ohio). The respirometer CO2 sensor was calibrated with a CO2 standard gas (8,000 ppm). […] The analyzer was equipped with a thermoconductivity detector and was operated using helium gas.
Commercial compost was purchased locally and adjusted to 58% moisture (dry weight basis). The glass sample bottles (250 ml) were filled with 20.0 g compost and 0.30 g test sample that was gently mixed with the compost. The sample bottles were initially flushed with CO2-free air and sealed. Respirometry experiments were conducted at room temperature (22° C.) and CO2 concentration was read every 12 hr. Three replications were tested for each treatment and data were expressed in terms of percentage mineralization.

Row | Compound | vapor pressure [1] [kPa] | Control of parasitic mites [2] | Mineralization rate (biodegradability) [3]
1 | CCCCCC(C)=O [2-heptanone] | 0.48 | controls parasitic mites | –
2 | mannitol dioctanoate [M8] | – | – | mineralized at nearly the same rate as the starch control
